Test results taken from PMC7434893 (British Journal of Cancer, 2020).

What was measured:
[1] = Plasma and urine pharmacokinetics, dose-escalation cohorts; assay type: in vivo, human; details: for AUC(0-inf) / AUC(0–24) / Ae, amount of drug dose excreted in urine / CLR / Cav,ss / Cmax / fe, fraction of dose excreted in urine / t1/2 / AUC(0-t): mean (SD); for tmax: median (min, max)
Experimental: Blood samples were also collected immediately before the dose on day 7 of cycle 1, days 1 and 15 of cycle 2 and on day 1 of cycle 3, and beyond. All urine produced during the time intervals pre-dose, 0–2 h, 2–4 h, 4–10 h and 10–24 h following the single dose on day –2, and after multiple doses on cycle 1, day 15, was collected.

RL95-2 = assay: 8-day growth inhibition; assay type: cell-based; details: Endometrial, RL95-2, 8-day assay
SNG-ll = assay: 8-day growth inhibition; assay type: cell-based; details: Endometrial, 8-day assay
[2] = 2-compartment pharmacokinetic model; assay type: in vivo, human; details: model estimate
Excerpt: In the second stage, the final parameters from the pharmacokinetic model were fixed for sequential PK/PD modelling.

[3] = 50 mg once daily, cycle 1 day 15, steady state
[4] = 100 mg once daily, cycle 1 day 15, steady state
[5] = 200 mg once daily, cycle 1 day 15, steady state
[6] = 400 mg once daily, cycle 1 day 15, steady state
[7] = 600 mg once daily, cycle 1 day 15, steady state
[8] = 800 mg once daily, cycle 1 day 15, steady state

## O=c1[nH]nc2c3c(cccc13)N=C(CN1Cc3ccccc3C1)N2 [E7449]
[1]; [3]
  AUC(0-inf): 634 (n = 1) ng·h/mL
  AUC(0–24): 714 (193) ng·h/mL
  Ae, amount of drug dose excreted in urine: 0.19 (0.00) (n = 2) mg
  CLR: 0.3 (0.01) (n = 2) L/h
  Cav,ss: 29.7 (8.03) ng/mL
  Cmax: 264 (227) ng/mL
  fe, fraction of dose excreted in urine: 0.39 (0.01) (n = 2) %
  t1/2: 9.04 (n = 1) h
  tmax: 1.00 (0.5, 2.00) h
[1]; 50 mg, day –2 single dose
  AUC(0-inf): 770 (n = 1) ng·h/mL
  AUC(0-t): 603 (213) ng·h/mL
  AUC(0–24): 768 (n = 1) ng·h/mL
  Ae, amount of drug dose excreted in urine: 0.11 (0.06) (n = 2) mg
  Cmax: 265 (99.8) ng/mL
  fe, fraction of dose excreted in urine: 0.22 (0.13) (n = 2) %
  t1/2: 3.42 (n = 1) h
  tmax: 2.00 (0.58, 2.03) h
[1]; [4]
  AUC(0-inf): 1150 (266) ng·h/mL
  AUC(0–24): 1100 (244) ng·h/mL
  Ae, amount of drug dose excreted in urine: 0.70 (n = 1) mg
  CLR: 0.5 (n = 1) L/h
  Cav,ss: 45.8 (10.2) ng/mL
  Cmax: 404 (175) ng/mL
  fe, fraction of dose excreted in urine: 0.70 (n = 1) %
  t1/2: 8.92 (2.50) h
  tmax: 3.00 (1.00, 4.00) h
[1]; 100 mg, day –2 single dose
  AUC(0-inf): 895 (99.8) ng·h/mL
  AUC(0-t): 879 (104) ng·h/mL
  AUC(0–24): 879 (104) ng·h/mL
  Ae, amount of drug dose excreted in urine: 0.47 (n = 1) mg
  CLR: 0.5 (n = 1) L/h
  Cmax: 284 (112) ng/mL
  fe, fraction of dose excreted in urine: 0.47 (n = 1) %
  t1/2: 6.35 (3.36) h
  tmax: 2.05 (1.08, 3.00) h
[1]; [5]
  AUC(0-inf): 2670 (1510) (n = 2) ng·h/mL
  AUC(0–24): 3690 (2230) ng·h/mL
  Ae, amount of drug dose excreted in urine: 1.11 (0.33) mg
  CLR: 0.5 (0.4) L/h
  Cav,ss: 154 (93.1) ng/mL
  Cmax: 1430 (1080) ng/mL
  fe, fraction of dose excreted in urine: 0.55 (0.17) %
  t1/2: 9.19 (4.83) (n = 2) h
  tmax: 1.00 (1.00, 2.00) h
[1]; 200 mg, day –2 single dose
  AUC(0-inf): 3320 (1790) (n = 2) ng·h/mL
  AUC(0-t): 3780 (1180) ng·h/mL
  AUC(0–24): 3670 (1170) ng·h/mL
  Ae, amount of drug dose excreted in urine: 0.70 (0.60) (n = 3) mg
  CLR: 0.2 (0.15) (n = 3) L/h
  Cmax: 996 (676) ng/mL
  fe, fraction of dose excreted in urine: 0.34 (0.29) (n = 3) %
  t1/2: 7.08 (1.16) (n = 2) h
  tmax: 3.10 (1.03, 4.18) h
[1]; [6]
  AUC(0-inf): 3240 (820) (n = 2) ng·h/mL
  AUC(0–24): 4730 (2730) ng·h/mL
  Ae, amount of drug dose excreted in urine: 2.05 (1.09) mg
  CLR: 0.4 (0.14) L/h
  Cav,ss: 197 (114) ng/mL
  Cmax: 1130 (1030) ng/mL
  fe, fraction of dose excreted in urine: 0.51 (0.27) %
  t1/2: 4.16 (1.72) (n = 2) h
  tmax: 4.00 (0.5, 4.00) h
[1]; 400 mg, day –2 single dose
  AUC(0-inf): 4800 (3000) (n = 3) ng·h/mL
  AUC(0-t): 4800 (2450) ng·h/mL
  AUC(0–24): 4690 (2400) ng·h/mL
  Ae, amount of drug dose excreted in urine: 2.77 (1.82) mg
  CLR: 0.6 (0.34) L/h
  Cmax: 999 (619) ng/mL
  fe, fraction of dose excreted in urine: 0.69 (0.45) %
  t1/2: 8.62 (0.54) (n = 3) h
  tmax: 2.04 (1.03, 4.05) h
[1]; [7]
  AUC(0-inf): 9660 (4550) (n = 4) ng·h/mL
  AUC(0–24): 7900 (4730) ng·h/mL
  Ae, amount of drug dose excreted in urine: 2.25 (1.28) mg
  CLR: 0.3 (0.12) L/h
  Cav,ss: 329 (198) ng/mL
  Cmax: 2230 (1570) ng/mL
  fe, fraction of dose excreted in urine: 0.38 (0.21) %
  t1/2: 5.05 (1.76) (n = 4) h
  tmax: 1.14 (0.50, 4.05) h
[1]; 600 mg, day –2 single dose
  AUC(0-inf): 10,700 (5040) (n = 4) ng·h/mL
  AUC(0-t): 8120 (4990) ng·h/mL
  AUC(0–24): 7930 (4990) ng·h/mL
  Ae, amount of drug dose excreted in urine: 2.90 (0.51) mg
  CLR: 5.0 (13.0) L/h
  Cmax: 2250 (1330) ng/mL
  fe, fraction of dose excreted in urine: 0.48 (0.09) %
  t1/2: 7.17 (2.98) (n = 4) h
  tmax: 2.12 (0.50, 24.3) h
[1]; [8]
  AUC(0-inf): 12,000 (5910) (n = 4) ng·h/mL
  AUC(0–24): 12,400 (5230) ng·h/mL
  Ae, amount of drug dose excreted in urine: 4.70 (2.91) mg
  CLR: 0.5 (0.34) L/h
  Cav,ss: 516 (218) ng/mL
  Cmax: 4120 (2160) ng/mL
  fe, fraction of dose excreted in urine: 0.68 (0.47) %
  t1/2: 6.44 (1.56) (n = 4) h
  tmax: 0.50 (0.0, 1.97) h
[1]; 800 mg, day –2 single dose
  AUC(0-inf): 12,900 (3350) (n = 4) ng·h/mL
  AUC(0-t): 11,500 (3370) ng·h/mL
  AUC(0–24): 11,300 (3230) ng·h/mL
  Ae, amount of drug dose excreted in urine: 4.00 (1.73) mg
  CLR: 0.4 (0.12) L/h
  Cmax: 4430 (2470) ng/mL
  fe, fraction of dose excreted in urine: 0.50 (0.22) %
  t1/2: 9.45 (2.42) (n = 4) h
  tmax: 0.79 (0.50, 2.00) h
[1]; across doses
  Drug dose excreted unchanged in urine: Less than 1.5%
  Elimination half-life, t1/2: approximately 8 h
RL95-2
  IC50: 2.13 µM
SNG-ll
  IC50: 5.26 µM
[2]; central to peripheral compartment
  k12: 0.21 h⁻¹
[2]; all doses fitted
  V/F, apparent volume of distribution for the central compartment: 149.7 L
  ka, absorption rate constant: 0.82 h⁻¹
  ke, first-order elimination rate constant: 0.51 h⁻¹
[2]; peripheral to central compartment
  k21: 0.27 h⁻¹
